Legend:
Type in all cases: biochemical
baculoviral GST-MLK3KD = target: T1, baculoviral GST-MLK3KD (Homo sapiens, UniProt Q16584); assay: Mixed Lineage Kinase-3 inhibition assay (Millipore Multiscreen plate, 32P); conditions: 1 uM compound, 100 μM ATP
T1 construct: 2 μg/ml of baculoviral GST-MLK3KD; GST (N); host or cells: baculovirus expression system
Method: Inhibition of Mixed Lineage Kinase-3 Activity
(§1) Assays were performed using the Millipore Multiscreen plate format as described for MLK1. Briefly, each 50-μl assay mixture contained 20 mM Hepes, pH 7, 1 mM EGTA, 10 mM MgCl2, 1 mM DTT, 25 mM β-glycerophosphate, 100 μM ATP, 0.25 μCi [γ-^32P]ATP, 0.1% BSA, 500 μg/ml myelin basic protein (UBI #13-104), 2% DMSO, various concentrations of test compound, and 2 μg/ml of baculoviral GST-MLK3KD. Samples were incubated for 15 min at 37° C. The reaction was stopped by adding ice cold 50% TCA and the proteins were allowed to precipitate for 30 min at 4° C. The plates were then washed with ice cold 25% TCA. Supermix scintillation cocktail was added, and the plates were allowed to equilibrate for 1-2 hours prior to counting.

[1] = target: T2, recombinant human baculovirus-expressed VEGFR1 cytoplasmic domain (Homo sapiens, UniProt P17948); assay: VEGFR1 kinase inhibition assay (ELISA-based, time-resolved fluorescence); conditions: 1 uM compound, 30 μM ATP
T2 construct: recombinant human baculovirus-expressed VEGFR1 cytoplasmic domain; host or cells: baculovirus expression system
T2 sequence (P17948 781-1338 limits assumed): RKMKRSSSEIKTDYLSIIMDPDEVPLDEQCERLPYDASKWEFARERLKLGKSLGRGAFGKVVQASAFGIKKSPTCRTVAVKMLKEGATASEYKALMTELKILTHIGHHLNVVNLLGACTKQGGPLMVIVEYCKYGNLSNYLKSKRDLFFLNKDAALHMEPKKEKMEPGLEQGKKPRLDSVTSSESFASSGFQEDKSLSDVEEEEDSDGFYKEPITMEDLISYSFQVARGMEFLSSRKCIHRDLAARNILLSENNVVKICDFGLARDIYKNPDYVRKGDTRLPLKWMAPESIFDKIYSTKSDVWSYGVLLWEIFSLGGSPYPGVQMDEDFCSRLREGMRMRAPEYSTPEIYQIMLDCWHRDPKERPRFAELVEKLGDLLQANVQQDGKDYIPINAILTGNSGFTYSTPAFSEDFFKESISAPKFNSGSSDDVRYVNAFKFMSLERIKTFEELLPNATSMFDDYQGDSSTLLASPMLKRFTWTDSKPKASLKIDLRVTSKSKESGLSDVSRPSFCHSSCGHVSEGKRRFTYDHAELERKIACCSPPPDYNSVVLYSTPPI
Method: Inhibition of Vascular Endothelial Growth Factor Receptor-1 Kinase Activity
The VEGFR1 kinase activity assay utilizes an ELISA-based format in a 96-well FluoroNUNC Maxisorp plate with a time-resolved fluorescence readout. The plate was coated with 100 μl/well of substrate solution (recombinant human PLC-γ/GST) at a concentration of 40 μg/ml in Tris buffered saline (TBS). The VEGFR1 activity was assayed in 100-μl assay micture containing 50 mM HEPES (pH 7.4), 30 μM ATP, 10 mM MnCl2, 0.1% BSA, 2% DMSO, and 300 ng/ml prephosphorylated recombinant human baculovirus-expressed VEGFR1 cytoplasmic domain. Compounds were screened for inhibition of the VEGFR1 kinase activity at a concentration of 1 μM. The kinase reaction was allowed to proceed at 37° C. for 15 minutes. The detection antibody, europium-labeled anti-phosphotyrosine antibody (Wallac #CR04-100), was added at 1:5000 dilution in block buffer (3% BSA in TBST). After a 1-hour incubation at 37° C., 100 μl of enhancement solution (Wallac #1244-105) was added and the plate was gently agitated. After 5 min, the fluorescence of the resulting solution was measured using the BMG Fluostar (Model # 403).

[2] = target: T3, recombinant human baculovirus-expressed FGFR1 cytoplasmic domain (Homo sapiens, UniProt P11362); assay: FGFR1 kinase inhibition assay (ELISA-based, time-resolved fluorescence); conditions: 1 uM compound; 20 μM ATP
T3 construct: recombinant human baculovirus-expressed FGFR1 cytoplasmic domain; host or cells: baculovirus expression system
Method: Inhibition of Fibroblast Growth Factor Receptor-1 (FGFR1) Kinase Activity
The FGFR1 kinase activity was measured using an ELISA-based format in a 96-well FluoroNUNC Maxisorp plate with a time-resolved fluorescence readout as described for trkA kinase. The plate was coated with 100 μl/well of substrate solution (recombinant human PLC-γ/GST) at a concentration of 10 μg/ml in Tris buffered saline (TBS). The FDGFR1 activity was assayed in 100-μl assay micture containing 50 mM HEPES (pH 7.4), 20 μM ATP, 10 mM MnCl2, 0.1% BSA, 2% DMSO, and 15 ng/ml recombinant human baculovirus-expressed FGFR1 cytoplasmic domain (prephosphorylated prior to use). Compounds were screened for inhibition of the FGFR1 kinase activity at a conentration of 1 μM. The kinase reaction was allowed to proceed at 37° C. for 15 minutes. The detection antibody, europium-labeled anti-phosphotyrosine antibody (Wallace #CR04-100), was added at 1:5000 dilution in block buffer (3% BSA in TBST). After a 1-hour incubation at 37° C., 100 μl of enhancement solution (Wallac #1244-105) and the plate was gently agitated. After 5 min, the fluorescence of the resulting solutions measured using the BMG Fluostar (Model # 403).

baculoviral GST-MLK2KDLZ = target: T4, baculoviral GST-MLK2KDLZ (Homo sapiens, UniProt Q02779); assay: Mixed Lineage Kinase-2 inhibition assay (Millipore Multiscreen plate, 32P); conditions: 1 uM compound, 100 μM ATP
T4 construct: 3 μg/ml of baculoviral GST-MLK2KDLZ; GST (N); host or cells: baculovirus expression system
Method: Inhibition of Mixed Lineage Kinase-2 Activity
as §1, with “MLK1. Each” for “MLK1. Briefly, each”, “and 3” for “and 2”, “baculoviral GST-MLK2KDLZ.” for “baculoviral GST-MLK3KD.”, “15 min.” for “15 min”, “25% TCA” for “25% TCA.”

T3 sequence (P11362 398-822 limits assumed): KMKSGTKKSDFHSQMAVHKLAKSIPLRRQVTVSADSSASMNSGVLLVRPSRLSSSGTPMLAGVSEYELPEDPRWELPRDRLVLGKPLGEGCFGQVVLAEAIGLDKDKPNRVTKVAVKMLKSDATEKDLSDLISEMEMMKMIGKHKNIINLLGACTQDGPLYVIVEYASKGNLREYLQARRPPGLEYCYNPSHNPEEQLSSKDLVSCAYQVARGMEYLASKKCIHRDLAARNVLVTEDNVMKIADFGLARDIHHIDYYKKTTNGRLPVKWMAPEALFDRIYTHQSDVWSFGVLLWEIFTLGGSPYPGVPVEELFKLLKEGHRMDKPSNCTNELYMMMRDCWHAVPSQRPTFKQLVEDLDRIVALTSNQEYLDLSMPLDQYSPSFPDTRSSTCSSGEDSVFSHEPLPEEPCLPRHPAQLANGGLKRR
T1 sequence (Q16584 117-379 limits assumed): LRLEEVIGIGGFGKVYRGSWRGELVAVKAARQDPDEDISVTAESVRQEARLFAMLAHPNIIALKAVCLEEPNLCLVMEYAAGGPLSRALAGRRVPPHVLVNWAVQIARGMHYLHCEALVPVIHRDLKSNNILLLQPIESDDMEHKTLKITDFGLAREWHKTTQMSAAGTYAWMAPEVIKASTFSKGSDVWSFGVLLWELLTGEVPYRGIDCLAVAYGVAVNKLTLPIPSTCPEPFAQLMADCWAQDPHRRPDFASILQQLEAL
T4 sequence (Q02779 98-440 limits assumed): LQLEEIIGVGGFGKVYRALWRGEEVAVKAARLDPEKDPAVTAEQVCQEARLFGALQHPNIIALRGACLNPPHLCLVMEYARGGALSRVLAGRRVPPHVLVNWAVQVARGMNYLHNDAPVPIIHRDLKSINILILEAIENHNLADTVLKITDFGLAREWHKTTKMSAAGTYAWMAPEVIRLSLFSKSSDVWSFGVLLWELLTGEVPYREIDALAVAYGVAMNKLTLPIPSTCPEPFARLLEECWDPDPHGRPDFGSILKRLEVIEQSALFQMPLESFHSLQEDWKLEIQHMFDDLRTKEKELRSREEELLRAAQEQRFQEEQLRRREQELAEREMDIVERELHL

Structure (SMILES) | MLK-3 Kinase % inhibition @ 1 uM (baculoviral GST-MLK3KD) | VEGFR-1 kinase % inhibition @ 1 uM [1] | FGFR1 % inhibition @ 1 uM [2] | MLK-2 Kinase % inhibition @ 1 uM (baculoviral GST-MLK2KDLZ) | inhibition at 1 µM (baculoviral GST-MLK3KD; read-out: MLK-3 Kinase % inhibition @ 1 uM) | inhibition at 1 µM ([1]; read-out: VEGFR-1 kinase % inhibition @ 1 uM) | inhibition at 1 µM [2] | inhibition at 1 µM (baculoviral GST-MLK2KDLZ; read-out: MLK-2 Kinase % inhibition @ 1 uM)
Cc1cccc2c(C=C3C(=O)NN=C3c3ccco3)c[nH]c12 [Compound 47] | 31% | 40% | 32% | −2% | – | – | – | –
O=C1NN=C(c2ccco2)C1=Cc1c[nH]c2ccc(F)cc12 [Compound 48] | 31% | 54% | 43% | 3% | – | – | – | –
O=C1NN=C(c2ccco2)C1=Cc1c[nH]c2ccc(Cl)cc12 [Compound 49] | 21% | 32% | 39% | 3% | – | – | – | –
COC(=O)c1ccc2c(C=C3C(=O)NN=C3c3ccco3)c[nH]c2c1 [Compound 50] | 15% | 31% | 20% | −1% | – | – | – | –
COc1ccc2[nH]cc(C=C3C(=O)NN=C3c3ccco3)c2c1 [Compound 51] | 47% | 25% | 9% | 3% | – | – | – | –
CN(C)c1ccc(C=C2C(=O)NN=C2c2ccco2)cc1 [Compound 52] | 19% | 0% | 10% | 5% | – | – | – | –
Cc1nc[nH]c1C=C1C(=O)NN=C1c1ccco1 [Compound 53] | 12% | 21% | 50% | −13% | – | – | – | –
O=C1NN=C(c2ccco2)C1=Cc1ncc[nH]1 [Compound 54] | 0% | 5% | 45% | −48% | – | – | – | –
Cc1cc(C)c(C=C2C(=O)NN=C2c2cccn2C)[nH]1 [Compound 55] | 26% | 20% | 36% | 2% | – | – | – | –
Cn1cccc1C1=NNC(=O)C1=Cc1c[nH]c2ccc(F)cc12 [Compound 56] | −1% | 5% | 30% | −14% | – | – | – | –
Cc1cc(C)c(C=C2C(=O)NN=C2c2cc3ccccc3o2)[nH]1 [Compound 57, 3-benzo[d]furan-2-yl-4-[(3,5-dimethylpyrrol-2-yl)methylene]-2-pyrazolin-5-one] | – | – | – | – | 67% | 7% | -2% | 5%
O=C1NN=C(c2cc3ccccc3o2)C1=Cc1c[nH]c2ccccc12 [Compound 58] | 43% | 51% | 24% | 4% | – | – | – | –
Cn1cc(C=C2C(=O)NN=C2c2cc3ccccc3o2)c2ccccc21 [Compound 59] | 47% | −2% | 29% | −8% | – | – | – | –
Cn1cc(C=C2C(=O)NN=C2c2nccs2)c2ccccc21 [Compound 60] | 58% | 63% | 66% | 9% | – | – | – | –
Cc1cc(C)c(C=C2C(=O)NN=C2c2cccs2)[nH]1 [Compound 61] | 72% | 44% | 35% | −4% | – | – | – | –
O=C1NN=C(c2cccs2)C1=Cc1c[nH]c2ccccc12 [Compound 62] | 45% | 38% | 37% | −21% | – | – | – | –
Cn1cc(C=C2C(=O)NN=C2c2cccs2)c2ccccc21 [Compound 63] | 78% | 40% | 38% | 1% | – | – | – | –
N#CCCn1cc(C=C2C(=O)NN=C2c2nccs2)c2ccccc21 [Compound 64] | 15% | 26% | 7% | 9% | – | – | – | –
N#CCCn1cc(C=C2C(=O)NN=C2c2ccoc2)c2ccccc21 [Compound 65] | 7% | 22% | 21% | −3% | – | – | – | –
N#CCCn1cc(C=C2C(=O)NN=C2c2cccs2)c2ccccc21 [Compound 66] | 11% | 24% | 29% | 5% | – | – | – | –
N#CCCn1cc(C=C2C(=O)NN=C2c2ccco2)c2ccccc21 [Compound 67] | 8% | 22% | 23% | −1% | – | – | – | –
O=C1NN=C(c2ccoc2)C1=Cc1cn(Cc2ccccc2)c2ccccc12 [Compound 68] | 20% | 11% | 27% | 16% | – | – | – | –
O=C1NN=C(c2ccco2)C1=Cc1cn(Cc2ccccc2)c2ccccc12 [Compound 69] | 9% | 5% | 30% | 4% | – | – | – | –
O=C1NN=C(c2nccs2)C1=Cc1cn(Cc2ccccc2)c2ccccc12 [Compound 70] | 15% | 1% | 21% | 5% | – | – | – | –

— patent publication US6831075B2, “Heterocyclic substituted pyrazolones” (Cephalon, Inc., priority 1999, dated 2004)
